According to PubChem BioAssay AID330 (DTP/NCI, 2004):
Where “and” joins values, the source holds several entries; their conditions need not be identical. Identical values can stand only once. Inconclusive results and toxic doses are left out.

Tested on: P388 leukemia ip, CD2F1 mice, survival T/C
Experiment: NCI In Vivo Anticancer Drug Screen. Data for tumor model P388 Leukemia (intraperitoneal) in CD2F1 (CDF1) mice
Settings: endpoint: median survival time, higher = longer survival
How it was run: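 Mice carrying the transplanted tumor received test compound or vehicle. Survival was recorded in each group, and the value is the treated-group measurement divided by that of the vehicle-treated control group.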

[1] = dose: 12.5 mg/kg/injection, schedule: Q01DX005 (ip), vehicle: Klucel (hydroxypropylcellulose) (HPC)
[2] = dose: 25.0 mg/kg/injection, schedule: Q01DX005 (ip), vehicle: Klucel (hydroxypropylcellulose) (HPC)
[3] = dose: 50.0 mg/kg/injection, schedule: Q01DX005 (ip), vehicle: Klucel (hydroxypropylcellulose) (HPC)
[4] = dose: 50.0 mg/kg/injection, schedule: Q01DX009 (ip), vehicle: Klucel (hydroxypropylcellulose) (HPC)
[5] = dose: 100.0 mg/kg/injection, schedule: Q01DX009 (ip), vehicle: saline
[6] = dose: 200.0 mg/kg/injection, schedule: Q01DX009 (ip), vehicle: saline
[7] = dose: 50.0 mg/kg/injection, schedule: Q01DX009 (ip), vehicle: saline with Tween-80
[8] = dose: 100.0 mg/kg/injection, schedule: Q01DX009 (ip), vehicle: saline with Tween-80
[9] = dose: 100.0 mg/kg/injection, schedule: Q01DX005 (ip), vehicle: Klucel (hydroxypropylcellulose) (HPC)
[10] = dose: 200.0 mg/kg/injection, schedule: Q01DX009 (ip), vehicle: saline with Tween-80

CC(=O)OCC12C(=O)CC(C)C3(CC(c4ccoc4)OC3=O)C1(C)CCCC21CO1 (stereo not drawn)
T/C (dose: 3.12 mg/kg/injection, schedule: Q01DX005 (ip), vehicle: Klucel (hydroxypropylcellulose) (HPC)): 97 % of control
T/C (dose: 6.25 mg/kg/injection, schedule: Q01DX005 (ip), vehicle: Klucel (hydroxypropylcellulose) (HPC)): 97 % of control
T/C [1]: 99 % of control
T/C [2]: 92 % of control
T/C [3]: 94 % of control

Cc1cc2cc(C3CCNCC3)oc2cc1C
T/C (dose: 12.5 mg/kg/injection, schedule: Q01DX009 (ip), vehicle: Klucel (hydroxypropylcellulose) (HPC)): 100 % of control
T/C (dose: 25.0 mg/kg/injection, schedule: Q01DX009 (ip), vehicle: Klucel (hydroxypropylcellulose) (HPC)): 100 % of control and 109 % of control
T/C [4]: 107 % of control and 109 % of control and 119 % of control

COc1ccc(C2c3cc4c(cc3OC(O)C2C)OCO4)cc1 (stereo not drawn)
T/C (dose: 60.0 mg/kg/injection, schedule: Q01DX005 (ip), vehicle: Klucel (hydroxypropylcellulose) (HPC)): 106 % of control
T/C (dose: 120.0 mg/kg/injection, schedule: Q01DX005 (ip), vehicle: Klucel (hydroxypropylcellulose) (HPC)): 100 % of control
T/C (dose: 240.0 mg/kg/injection, schedule: Q01DX005 (ip), vehicle: Klucel (hydroxypropylcellulose) (HPC)): 101 % of control

N=C(N)Sc1ccccn1
T/C [5]: 94 % of control
T/C [6]: 101 % of control

C=C1C(=O)OC(C)(C)C1c1ccccc1 (stereo not drawn)
T/C [4]: 96 % of control
T/C (dose: 100.0 mg/kg/injection, schedule: Q01DX009 (ip), vehicle: Klucel (hydroxypropylcellulose) (HPC)): 90 % of control

Cc1cc(N/N=C/c2ccc(Cl)cc2)c2cc3c(cc2n1)OCO3
T/C [1]: 98 % of control
T/C [2]: 103 % of control
T/C [3]: 102 % of control and 95 % of control

C=CCn1c(=O)n(CC=C)c(=O)n(CCOC(=O)COc2ccc(Cl)cc2Cl)c1=O
T/C (dose: 50.0 mg/kg/injection, schedule: Q01DX009 (ip), vehicle: saline): 108 % of control
T/C [5]: 112 % of control
T/C [6]: 94 % of control

Cl/N=C(\Nc1ccccc1)c1ccccn1
T/C [7]: 105 % of control
T/C [8]: 96 % of control

CCOC(=O)/C=C/CC1CCNC1 (stereo not drawn)
T/C (dose: 60.0 mg/kg/injection, schedule: Q01DX005 (ip), vehicle: saline): 100 % of control
T/C (dose: 120.0 mg/kg/injection, schedule: Q01DX005 (ip), vehicle: saline): 100 % of control
T/C (dose: 240.0 mg/kg/injection, schedule: Q01DX005 (ip), vehicle: saline): 106 % of control

CC1CCCC2CCCOCN12 (stereo not drawn)
T/C [1]: 107 % of control
T/C (dose: 12.5 mg/kg/injection, schedule: Q01DX005 (ip), vehicle: saline): 103 % of control
T/C [2]: 106 % of control
T/C (dose: 25.0 mg/kg/injection, schedule: Q01DX005 (ip), vehicle: saline): 99 % of control
T/C [3]: 104 % of control
T/C (dose: 50.0 mg/kg/injection, schedule: Q01DX005 (ip), vehicle: saline): 100 % of control and 104 % of control
T/C [9]: 101 % of control
T/C (dose: 100.0 mg/kg/injection, schedule: Q01DX005 (ip), vehicle: saline): 122 % of control and 98 % of control

CCCCCCC(=O)/C=C/c1ccc(OC)cc1OC
T/C [7]: 94 % of control
T/C [8]: 91 % of control
T/C [10]: 91 % of control

OC1C=CC2C(CC1)C1(c3ccccc3)OC2(c2ccccc2)c2ccccc21 (stereo not drawn)
T/C [3]: 100 % of control
T/C [9]: 98 % of control
T/C (dose: 200.0 mg/kg/injection, schedule: Q01DX005 (ip), vehicle: Klucel (hydroxypropylcellulose) (HPC)): 99 % of control

Nc1nc(N)c2nc(CNc3ccc(C(=O)NC(CCC(=O)O)C(=O)O)cc3)cnc2n1 (stereo not drawn)
T/C (dose: 0.03 mg/kg/injection, schedule: Q01DX009 (ip), vehicle: clinical formulation): 105 % of control
T/C (dose: 0.04 mg/kg/injection, schedule: Q01DX009 (ip), vehicle: clinical formulation): 120 % of control

Oc1c(C(c2ccccc2)N2CCCCC2)ccc2ccccc12 (stereo not drawn)
T/C [7]: 110 % of control
T/C [8]: 105 % of control
T/C [10]: 90 % of control

CC1(C)C(C(N)=O)C(=O)NC(=O)C1C(N)=O (stereo not drawn)
T/C (dose: 25.0 mg/kg/injection, schedule: Q01DX009 (ip), vehicle: other): 100 % of control
T/C (dose: 50.0 mg/kg/injection, schedule: Q01DX009 (ip), vehicle: other): 100 % of control
T/C (dose: 100.0 mg/kg/injection, schedule: Q01DX009 (ip), vehicle: other): 99 % of control
T/C (dose: 200.0 mg/kg/injection, schedule: Q01DX009 (ip), vehicle: other): 100 % of control
T/C (dose: 400.0 mg/kg/injection, schedule: Q01DX009 (ip), vehicle: other): 105 % of control

COC1C(C)OC(OC2CC(C)(O)Cc3cc4c(c(O)c32)C(=O)c2c(O)cc3c(c2C4=O)OC2OC3(C)C(O)C(N(C)C)C2O)C(OC)C1(C)OC (stereo not drawn)
T/C (dose: 0.6 mg/kg/injection, schedule: Q01DX009 (ip), vehicle: other): 124 % of control
T/C (dose: 0.75 mg/kg/injection, schedule: Q04DX003 (ip), vehicle: saline): 121 % of control
T/C (dose: 1.0 mg/kg/injection, schedule: Q01DX009 (ip), vehicle: saline): 151 % of control
T/C (dose: 1.0 mg/kg/injection, schedule: Q04DX003 (ip), vehicle: saline): 121 % of control
T/C (dose: 1.25 mg/kg/injection, schedule: Q01DX009 (ip), vehicle: other): 151 % of control
T/C (dose: 1.25 mg/kg/injection, schedule: Q04DX003 (ip), vehicle: other): 124 % of control
T/C (dose: 1.5 mg/kg/injection, schedule: Q01DX009 (ip), vehicle: saline): 160 % of control
T/C (dose: 2.0 mg/kg/injection, schedule: Q01DX009 (ip), vehicle: saline): 160 % of control
T/C (dose: 2.5 mg/kg/injection, schedule: Q01DX009 (ip), vehicle: saline): 174 % of control
T/C (dose: 2.5 mg/kg/injection, schedule: Q04DX003 (ip), vehicle: other): 153 % of control
T/C (dose: 3.0 mg/kg/injection, schedule: Q01DX009 (ip), vehicle: saline): 169 % of control
T/C (dose: 4.0 mg/kg/injection, schedule: Q01DX009 (ip), vehicle: saline): 180 % of control
T/C (dose: 5.0 mg/kg/injection, schedule: Q01DX009 (ip), vehicle: saline): 193 % of control
T/C (dose: 5.0 mg/kg/injection, schedule: Q04DX003 (ip), vehicle: saline): 150 % of control
T/C (dose: 6.0 mg/kg/injection, schedule: Q04DX003 (ip), vehicle: water): 153 % of control
T/C (dose: 10.0 mg/kg/injection, schedule: Q04DX003 (ip), vehicle: other): 165 % of control
T/C (dose: 10.0 mg/kg/injection, schedule: Q04DX003 (ip), vehicle: saline with Tween-80): 157 % of control
T/C (dose: 10.0 mg/kg/injection, schedule: Q04DX003 (ip), vehicle: saline): 156 % of control
T/C (dose: 10.0 mg/kg/injection, schedule: Q04DX003 (ip), vehicle: water): 157 % of control
T/C (dose: 12.0 mg/kg/injection, schedule: Q04DX003 (ip), vehicle: saline): 158 % of control
T/C (dose: 12.5 mg/kg/injection, schedule: Q01DX001 (sc), vehicle: other): 103 % of control
T/C (dose: 15.0 mg/kg/injection, schedule: Q04DX003 (ip), vehicle: saline with Tween-80): 150 % of control
T/C (dose: 16.0 mg/kg/injection, schedule: Q04DX003 (ip), vehicle: saline): 112 % of control
T/C (dose: 20.0 mg/kg/injection, schedule: Q04DX003 (ip), vehicle: other): 124 % of control
T/C (dose: 25.0 mg/kg/injection, schedule: Q01DX001 (ip), vehicle: other): 157 % of control and 175 % of control
T/C (dose: 25.0 mg/kg/injection, schedule: Q01DX001 (sc), vehicle: other): 100 % of control and 102 % of control
T/C (dose: 50.0 mg/kg/injection, schedule: Q01DX001 (sc), vehicle: other): 103 % of control and 105 % of control
T/C (dose: 100.0 mg/kg/injection, schedule: Q01DX001 (sc), vehicle: other): 99 % of control
T/C (dose: 625.0 micrograms/kg/injection, schedule: Q01DX009 (ip), vehicle: other): 118 % of control
T/C (dose: 1250.0 micrograms/kg/injection, schedule: Q01DX009 (ip), vehicle: other): 157 % of control
T/C (dose: 2500.0 micrograms/kg/injection, schedule: Q01DX009 (ip), vehicle: other): 157 % of control and 172 % of control
T/C (dose: 5000.0 micrograms/kg/injection, schedule: Q01DX009 (ip), vehicle: other): 90 % of control

COC1CCC2=C(C1)C(=O)CC1c3ccccc3CN21 (stereo not drawn)
T/C (dose: 12.5 mg/kg/injection, schedule: Q01DX009 (ip), vehicle: saline with Tween-80): 100 % of control
T/C (dose: 25.0 mg/kg/injection, schedule: Q01DX009 (ip), vehicle: saline with Tween-80): 100 % of control
T/C [7]: 100 % of control

C=CN=NNc1ccc(Cl)cc1
T/C (dose: 100.0 mg/kg/injection, schedule: Q04DX003 (ip), vehicle: saline + Tween-80 + alcohol): 109 % of control
T/C (dose: 200.0 mg/kg/injection, schedule: Q04DX003 (ip), vehicle: saline + Tween-80 + alcohol): 108 % of control
T/C (dose: 400.0 mg/kg/injection, schedule: Q04DX003 (ip), vehicle: saline + Tween-80 + alcohol): 117 % of control
